Results from patent US20240108702A1, “Use Of Naturally Occurring Cyclic Peptides For Treatment Of SARS-COV-2 Infection” (The University of Southern California, priority 2021, published 2024).
pIC50: −log10 of the molar value. Read-outs that look alike come from different tables or passages of the source. Where a SMILES comes first, the peptide text is derived from it. Bridges are numbered along the chain shown (N, C = ends).

Columns and labels:
[1] = Interspecies allometric scaling to predict human PK and human equivalent dose
Protocol: Interspecies allometric scaling: Single-dose PK data from mice, rats, cynomolgus monkeys, and a vervet was used to predict human PK parameters using simple allometry. The relationship between CL or Vss obtained from the NCA, and the body weight was described using the following equation: Y=a·BW^b, where Y is the PK parameter (e.g., CL or Vss), BW is the bodyweight of the species, a is an allometric coefficient, and b is an allometric exponent. Linear regression was performed on log-transformed data. The predicted human equivalent dose was calculated based on the allometrically scaled clearance using the following equation: Dose=CL*AUC0-∞. The corresponding average AUCτ and AUC0-∞ at NOAEL and LOAEL, respectively, were used to convert the doses at NOAEL and LOAEL in preclinical animals to HED.

in vivo [2] = settings: both, Sprague-Dawley, rat, iv
TMPRSS2 = TMPRSS2 (Homo sapiens, UniProt O15393); assay: Cellular TMPRSS2 inhibition assay in Calu3 cells; type: cell-based; design: endogenous in cells; host or cells: Calu3 (Calu-3) cells
Protocol: TMPRSS2 inhibition assays. Peptides (0-50 μg/ml) were tested for their inhibitory activities against TMPRSS2 in cellular assays using Vero E6 cells, Caco-2 cells, or Calu-3 cells using standard conditions. TMPRSS2 activity was assayed in real time for 120 min by monitoring the cleavage of the TMPRSS2 substrate, Boc-Leu-Gly-Arg-AMC. Following the 2 h enzyme assay, cells were evaluated for viability using the CellTiter-Glo cellular toxicity assay.

[3] = rats
in vivo [4] = settings: both, cynomolgus monkey; for AUC(0-inf) / AUC / clearance / Cmax / MRT inf / Vd: iv, cynomolgus; for AUC(0-inf): AUC0-∞; for AUC: AUCτ; for clearance: CL; for MRT inf: MRTinf; for Vd: Vss
in vivo [5] = settings: both, cynomolgus monkey, iv
[6] = cynomolgus
[7] = 0.3 mg/kg, 0.3 mg/kg i.v., Day 1, mean
[8] = 1 mg/kg, 1 mg/kg i.v., Day 1, mean
[9] = 3 mg/kg, 3 mg/kg i.v., Day 1, mean
[10] = 5 mg/kg, 5 mg/kg i.v., Day 1, mean
[11] = 5 mg/kg/day, 5 mg/kg/day i.v., Day 10, mean
[12] = 10 mg/kg, 10 mg/kg i.v., Day 1, mean
[13] = 10 mg/kg/day, 10 mg/kg/day i.v., Day 10, mean
[14] = 15 mg/kg, 15 mg/kg i.v., Day 1, mean
[15] = 15 mg/kg/day, 15 mg/kg/day i.v., Day 4, mean
[16] = 15 mg/kg/day, 15 mg/kg/day i.v., Day 7, mean
[17] = 15 mg/kg/day, 15 mg/kg/day i.v., Day 10, mean

TMPRSS2, sequence (O15393 whole entry): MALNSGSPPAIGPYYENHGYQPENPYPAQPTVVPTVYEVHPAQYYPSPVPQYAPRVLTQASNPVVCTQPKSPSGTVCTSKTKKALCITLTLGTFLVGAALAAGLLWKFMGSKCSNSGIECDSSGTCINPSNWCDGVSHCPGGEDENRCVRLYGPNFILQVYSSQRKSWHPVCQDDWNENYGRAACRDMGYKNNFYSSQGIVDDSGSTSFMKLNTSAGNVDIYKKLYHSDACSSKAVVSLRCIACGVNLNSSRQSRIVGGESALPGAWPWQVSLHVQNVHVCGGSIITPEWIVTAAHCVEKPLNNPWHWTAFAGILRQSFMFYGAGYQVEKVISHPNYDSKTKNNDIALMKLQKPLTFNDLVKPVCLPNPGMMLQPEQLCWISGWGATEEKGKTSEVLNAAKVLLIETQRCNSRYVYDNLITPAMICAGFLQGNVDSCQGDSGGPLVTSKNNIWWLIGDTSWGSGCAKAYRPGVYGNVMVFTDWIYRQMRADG

Structure (SMILES): CC[C@H](C)[C@@H]1NC(=O)[C@@H]2CSSC[C@H](NC(=O)[C@H](CCCNC(=N)N)NC(=O)[C@@H]3CSSC[C@H](NC1=O)C(=O)N[C@@H]([C@@H](C)O)C(=O)N[C@@H](CCCNC(=N)N)C(=O)NCC(=O)N[C@@H](Cc1ccccc1)C(=O)N3)C(=O)N[C@@H](CC(C)C)C(=O)N[C@H]1CSSC[C@H](NC(=O)[C@H](C(C)C)NC(=O)CNC(=O)[C@H](CCCNC(=N)N)NC(=O)[C@H](CCCNC(=N)N)NC1=O)C(=O)N[C@@H](CCCNC(=N)N)C(=O)N2 [Peptide 1] (cyclo(GFCRCLCRRGVCRCICTR); disulfide 3-16, 5-14, 7-12)
- HED equivalent to NOAEL in cynomolgus monkeys ([1]; 70 kg individual): 15.9 mg/kg
- HED equivalent to NOAEL in rats ([1]; 70 kg individual): 3.1 mg/kg
- predicted human Vss ([1]; adult 70 kg, simple allometry): 28.0 L
- AUC (in vivo [2]; 5 mg/kg): 15000 ng·h/mL
- AUC(0-inf) (in vivo [2]; 5 mg/kg): 15900 ng·h/mL
- Cmax (in vivo [2]; 5 mg/kg): 7470 ng/mL
- MRT (in vivo [2]; 5 mg/kg): 4.37 h
- Vd (in vivo [2]; 5 mg/kg): 1.46 L/kg
- clearance (in vivo [2]; 5 mg/kg): 5.57 mL/min/kg
- AUC (in vivo [2]; 5 mg/kg/day): 12500 ng·h/mL
- AUC(0-inf) (in vivo [2]; 5 mg/kg/day): 12700 ng·h/mL
- Cmax (in vivo [2]; 5 mg/kg/day): 10100 ng/mL
- MRT (in vivo [2]; 5 mg/kg/day): 2.92 h
- Vd (in vivo [2]; 5 mg/kg/day): 1.17 L/kg
- clearance (in vivo [2]; 5 mg/kg/day): 6.68 mL/min/kg
- AUC (in vivo [2]; 10 mg/kg): 41700 ng·h/mL
- AUC(0-inf) (in vivo [2]; 10 mg/kg): 42100 ng·h/mL
- Cmax (in vivo [2]; 10 mg/kg): 27500 ng/mL
- MRT (in vivo [2]; 10 mg/kg): 2.88 h
- Vd (in vivo [2]; 10 mg/kg): 0.691 L/kg
- clearance (in vivo [2]; 10 mg/kg): 4 mL/min/kg
- AUC (in vivo [2]; 10 mg/kg/day): 34100 ng·h/mL
- AUC(0-inf) (in vivo [2]; 10 mg/kg/day): 34700 ng·h/mL
- Cmax (in vivo [2]; 10 mg/kg/day): 21800 ng/mL
- MRT (in vivo [2]; 10 mg/kg/day): 3.45 h
- Vd (in vivo [2]; 10 mg/kg/day): 1.01 L/kg
- clearance (in vivo [2]; 10 mg/kg/day): 4.88 mL/min/kg
- AUC (in vivo [2]; 20 mg/kg): 127000 ng·h/mL
- AUC(0-inf) (in vivo [2]; 20 mg/kg): 127000 ng·h/mL
- Cmax (in vivo [2]; 20 mg/kg): 35400 ng/mL
- MRT (in vivo [2]; 20 mg/kg): 4.81 h
- Vd (in vivo [2]; 20 mg/kg): 0.758 L/kg
- clearance (in vivo [2]; 20 mg/kg): 2.62 mL/min/kg
- pIC50 (TMPRSS2): 5.42 to 5.51
- AUCτ on Day 7 lower than AUC0-∞ on Day 1 ([3]; 5 mg/kg group): 22%
- λz ([3]; 5 mg/kg i.v., Day 1): 0.056 h⁻¹
- λz ([3]; 5 mg/kg/day i.v., Day 7): 0.104 h⁻¹
- AUCτ on Day 7 lower than AUC0-∞ on Day 1 ([3]; 10 mg/kg group): 19%
- λz ([3]; 10 mg/kg i.v., Day 1): 0.148 h⁻¹
- λz ([3]; 10 mg/kg/day i.v., Day 7): 0.133 h⁻¹
- λz ([3]; 20 mg/kg i.v., Day 1): 0.221 h⁻¹
- plasma levels during recovery period ([3]; Day 25, all but one rat): undetectable
- half-life (in vivo [4]): 9.53 h
- half-life (in vivo [4]; 15 mg/kg): 47.2 h
- AUC(0-inf) (in vivo [4]; [7]): 617 ng·h/mL
- AUC (in vivo [4]; [7]): 591 ng·h/mL
- clearance (in vivo [4]; [7]): 8.3 mL/min/kg
- Cmax (in vivo [4]; [7]): 582 ng/mL
- MRT inf (in vivo [4]; [7]): 1.24 h
- Vd (in vivo [4]; [7]): 0.626 L/kg
- AUC(0-inf) (in vivo [4]; [8]): 3880 ng·h/mL
- AUC (in vivo [4]; [8]): 3820 ng·h/mL
- clearance (in vivo [4]; [8]): 4.43 mL/min/kg
- Cmax (in vivo [4]; [8]): 2560 ng/mL
- MRT inf (in vivo [4]; [8]): 1.82 h
- Vd (in vivo [4]; [8]): 0.486 L/kg
- AUC(0-inf) (in vivo [4]; [9]): 10700 ng·h/mL
- AUC (in vivo [4]; [9]): 10300 ng·h/mL
- clearance (in vivo [4]; [9]): 4.78 mL/min/kg
- Cmax (in vivo [4]; [9]): 4750 ng/mL
- MRT inf (in vivo [4]; [9]): 4.3 h
- Vd (in vivo [4]; [9]): 1.22 L/kg
- AUC(0-inf) (in vivo [4]; [10]): 27200 ng·h/mL
- AUC (in vivo [4]; [10]): 27200 ng·h/mL
- clearance (in vivo [4]; [10]): 3.13 mL/min/kg
- Cmax (in vivo [4]; [10]): 10700 ng/mL
- MRT inf (in vivo [4]; [10]): 2.94 h
- Vd (in vivo [4]; [10]): 0.55 L/kg
- AUC(0-inf) (in vivo [4]; [11]): 40000 ng·h/mL
- AUC (in vivo [4]; [11]): 38900 ng·h/mL
- clearance (in vivo [4]; [11]): 2.27 mL/min/kg
- Cmax (in vivo [4]; [11]): 11700 ng/mL
- MRT inf (in vivo [4]; [11]): 4.84 h
- Vd (in vivo [4]; [11]): 0.645 L/kg
- AUC(0-inf) (in vivo [4]; [12]): 76800 ng·h/mL
- AUC (in vivo [4]; [12]): 76100 ng·h/mL
- clearance (in vivo [4]; [12]): 2.38 mL/min/kg
- Cmax (in vivo [4]; [12]): 26700 ng/mL
- MRT inf (in vivo [4]; [12]): 4.4 h
- Vd (in vivo [4]; [12]): 0.629 L/kg
- AUC(0-inf) (in vivo [4]; [13]): 125000 ng·h/mL
- AUC (in vivo [4]; [13]): 118000 ng·h/mL
- clearance (in vivo [4]; [13]): 1.48 mL/min/kg
- Cmax (in vivo [4]; [13]): 27300 ng/mL
- MRT inf (in vivo [4]; [13]): 7.2 h
- Vd (in vivo [4]; [13]): 0.624 L/kg
- AUC(0-inf) (in vivo [4]; [14]): 142000 ng·h/mL
- AUC (in vivo [4]; [14]): 138000 ng·h/mL
- clearance (in vivo [4]; [14]): 1.9 mL/min/kg
- Cmax (in vivo [4]; [14]): 46500 ng/mL
- MRT inf (in vivo [4]; [14]): 5.48 h
- Vd (in vivo [4]; [14]): 0.629 L/kg
- AUC(0-inf) (in vivo [4]; [15]): 167000 ng·h/mL
- AUC(0-inf) (in vivo [4]; [16]): 188000 ng·h/mL
- AUC(0-inf) (in vivo [4]; [17]): 213000 ng·h/mL
- AUC (in vivo [4]; [15]): 140000 ng·h/mL
- AUC (in vivo [4]; [16]): 154000 ng·h/mL
- AUC (in vivo [4]; [17]): 173000 ng·h/mL
- clearance (in vivo [4]; [15]): 1.78 mL/min/kg
- clearance (in vivo [4]; [16]): 1.63 mL/min/kg
- clearance (in vivo [4]; [17]): 1.72 mL/min/kg
- Cmax (in vivo [4]; [15]): 31100 ng/mL
- Cmax (in vivo [4]; [16]): 32800 ng/mL
- Cmax (in vivo [4]; [17]): 32200 ng/mL
- MRT inf (in vivo [4]; [15]): 11.8 h
- MRT inf (in vivo [4]; [16]): 12.3 h
- MRT inf (in vivo [4]; [17]): 12 h
- Vd (in vivo [4]; [15]): 1.26 L/kg
- Vd (in vivo [4]; [16]): 1.19 L/kg
- Vd (in vivo [4]; [17]): 1.14 L/kg
- NOAEL at 10 days (in vivo [5]): 15 mg/kg/day
- mortality (cynomolgus monkeys, 10-day repeat dose, any dose level): no mortality or unscheduled euthanasia occurred
- urinalysis, ophthalmologic assessments, electrocardiogram (cynomolgus monkeys, any dose level, data not shown): no treatment-related changes
- food consumption (cynomolgus, females at 10 mg/kg/day and both sexes at 15 mg/kg/day, non-adverse): Treatment-related decrease in food consumption
- microscopic findings, lung (cynomolgus, males ≥10 mg/kg/day and females ≥5 mg/kg/day, Day 11, resolved by end of recovery): minimal to mild intravascular thrombosis (thromboembolism)
- tolerability (male and female cynomolgus monkeys, doses up to 15 mg/kg): well tolerated
- λz ([6]; 0.3 mg/kg i.v., Day 1, mean): 0.523 h⁻¹
- λz ([6]; 1 mg/kg i.v., Day 1, mean): 0.251 h⁻¹
- λz ([6]; 3 mg/kg i.v., Day 1, mean): 0.078 h⁻¹
- accumulation, mean AUCτ Day 10 vs mean AUC0-∞ Day 1 ([6]; 5 mg/kg): approximately 1.4 fold
- λz ([6]; 5 mg/kg i.v., Day 1, mean): 0.323 h⁻¹
- λz ([6]; 5 mg/kg/day i.v., Day 10, mean): 0.157 h⁻¹
- accumulation, mean AUCτ Day 10 vs mean AUC0-∞ Day 1 ([6]; 10 mg/kg): ~1.5 fold
- λz ([6]; 10 mg/kg i.v., Day 1, mean): 0.192 h⁻¹
- λz ([6]; 10 mg/kg/day i.v., Day 10, mean): 0.120 h⁻¹
- λz ([6]; 15 mg/kg i.v., Day 1, mean): 0.149 h⁻¹
- λz ([6]; 15 mg/kg/day i.v., Day 4, mean): 0.072 h⁻¹
- λz ([6]; 15 mg/kg/day i.v., Day 7, mean): 0.071 h⁻¹
- λz ([6]; 15 mg/kg/day i.v., Day 10, mean): 0.078 h⁻¹
- time plasma concentrations detectable post end of infusion ([6]; single dose of 0.3 or 1 mg/kg): up to 12 h
